For this test, the target named is Plasma kallikrein (Homo sapiens, UniProt P03952). Briefly: Inhibitory Activity In Vitro Assay : Plasma kallikrein inhibitory activity in vitro was determined using standard published methods. Human plasma kallikrein (Protogen) was incubated at 25° C. with the fluorogenic substrate H-DPro-Phe-Arg-AFC and various concentrations of the test compound. Residual enzyme activity (initial rate of reaction) was determined by measuring the change in […] and the IC50 value for the test compound was determined.
Sequence of Plasma kallikrein (P03952 20-390 limits assumed): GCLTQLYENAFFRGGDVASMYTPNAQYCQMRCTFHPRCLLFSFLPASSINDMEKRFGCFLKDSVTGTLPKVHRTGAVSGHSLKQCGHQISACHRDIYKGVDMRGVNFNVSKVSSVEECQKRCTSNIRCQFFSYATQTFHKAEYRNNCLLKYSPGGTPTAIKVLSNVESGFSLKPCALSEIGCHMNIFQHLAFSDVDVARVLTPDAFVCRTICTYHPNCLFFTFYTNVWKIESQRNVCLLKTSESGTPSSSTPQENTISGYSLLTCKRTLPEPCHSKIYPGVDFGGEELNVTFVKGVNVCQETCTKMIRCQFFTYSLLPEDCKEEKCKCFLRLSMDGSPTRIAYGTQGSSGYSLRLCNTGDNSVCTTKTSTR
Sequence of Plasma kallikrein (P03952 391-638 limits assumed): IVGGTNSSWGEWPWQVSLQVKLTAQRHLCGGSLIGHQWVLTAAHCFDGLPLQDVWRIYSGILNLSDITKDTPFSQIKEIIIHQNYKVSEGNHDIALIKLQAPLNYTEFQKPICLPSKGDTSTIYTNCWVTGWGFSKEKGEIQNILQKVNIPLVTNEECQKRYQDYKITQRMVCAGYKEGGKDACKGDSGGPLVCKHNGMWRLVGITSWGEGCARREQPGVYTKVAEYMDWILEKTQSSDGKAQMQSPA

By IC50 is commonly meant the point on the concentration scale where inhibition reaches its midpoint. Higher therefore signals weaker potency.

With `CCOc1cccc(CNC(=O)c2cn(Cc3ccc(Cn4cc(C)cn4)cc3)nc2C(F)(F)F)c1`, half-maximal inhibition (IC50) was put at 2360 nM.
